Results: article PMC4541410 (Scientific Reports, 2015)

Tests used:
[1] = test system: proteinase K; test: in vitro; details: proteinase K in PBS, pH 7.2
Procedure: Chromatographic analyses were performed using an ODS-C8 column (5 μm, 100 mm × 2.0 mm ID) kept at ambient temperature. The mobile phase was composed of acetonitrile-water-formic acid in the ratio of 50:50:0.1 (v/v/v) at a flow rate of 0.3 mL/min. The sample injection volume was 10 μL. Acetonitrile was HPLC grade and other chemical reagents and solvents were analytical grade. A Thermo TSQ Quantum Discovery MAX triple-quadruple tandem mass spectrometer equipped with ESI source (San Jose, CA) and Surveyor LC pump were used for LC-MS analysis. Data acquisition and data processing were performed by using Xcalibur software and LCQuan 2.0 data analysis program (Thermo Finnigan), respectively. Optimized MS parameters were as below: 4800 V spray voltage, 40.0 psi sheath gas pressure, 1.0 psi auxiliary valve flow and 300 °C of capillary temperature. When running collision-induced dissociation (CID), the pressure was set to 1.5 mTorr.
The peptides (10 μg/mL) were prepared in PBS pH 7.2 containing 20 ng/ml proteinase K. The resulting mixture were incubated at 37 °C in a water bath and taken out at different time intervals (0, 5, 15, 30, 60, 120 minutes), followed by quenching the samples with ethyl alcohol and quantitating the peptides by LC-MS analysis as described above.

[2] = in vivo; details: male, Sprague-Dawley (SD), rat, plasma, iv, 1 mg/kg
[3] = subcutaneously twice daily at 90 mg per dose; cited from earlier work
[4] = cited from earlier work
[5] = intravenous 1 mg/kg, male SD rats, n = 2; plasma by sandwich ELISA; PK Solver

Substance: enfuvirtide
- remaining at 2 h, 10 μg/mL [1]: 29%
- MRT [2]: 2.27 h
- half-life [2]: 94.2 min
- injection-site reactions [3]: often causing serious injection-site reactions
- half-life in plasma [4]: about 2 h
- Cmax [5]: 314.80 µg/mL
